The values below come from article PMC10051560, “Identification and Functional Characterization of General Odorant Binding Proteins in Orthaga achatina” (Insects, 2023).

The target in assay [1] is T1, OachGOBP2 (Orthaga achatina, UniProt H6UEU3). Briefly: Fluorescence competitive binding assay (1-NPN displacement), OachGOBP2. As to conditions: for Ki: Ki = [IC50]/(1 + [1-NPN]/K1-NPN), read-out: GOBP2 Ki; for binding to GOBP2 (in words): fluorescence competitive binding. The procedure: (§1) A fluorescence competition binding assay was used to test the binding properties of GOBPs to 22 plant volatiles of camphor [22, 23] and 4 sex pheromones of O. achatina. The fluorescence competitive binding assay was conducted on an F-7000 fluorescence spectrophotometer with a 1 cm light path quartz cuvette and 10 nm slits for excitation and emission. The excitation wavelength was 337 nm, and the emission spectrum was recorded between 380 and 460 nm. Firstly, the binding characteristics of 1-NPN to protein were detected. We dissolved 2 µM protein in 50 mM Tris HCl (pH = 7.4), then gradually added 1 mM 1-NPN to make its concentration reach 2, 4, 6, 8, 10, 12, 14, 16 and 20 µM, recorded the fluorescence value, and then calculated the binding constant between 1-NPN and the recombinant protein using the Scatchard equation.
T1 sequence (H6UEU3 entry or part of it): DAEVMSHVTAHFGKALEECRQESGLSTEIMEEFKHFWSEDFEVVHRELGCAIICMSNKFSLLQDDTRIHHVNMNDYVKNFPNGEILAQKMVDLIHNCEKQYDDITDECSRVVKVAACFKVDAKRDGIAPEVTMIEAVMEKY
(§2) When studying the binding constant between odorant and recombinant protein, 1-NPN was used as a fluorescence reporter. We dissolved 2 µM protein and 2 µM 1-NPN in 50 mM Tris HCl, and then gradually added the ligand. All the ligands were diluted in methanol (AR, content greater than 99.5%). The concentration of pheromone component was 0.5–10 µM and the concentration of plant volatile was 1–32 µM. In order to determine the binding concentration of protein, the free radical concentration was plotted with the fluorescence intensity of the maximum emission spectrum. It was assumed that the protein activity was 100% and the binding ratio of protein to ligand was 1:1 in the saturated state. The curve was linearized by the Scatchard method. Then, the concentration of competitive binding ligand was calculated according to the IC50 value (the concentration when competitive ligand can replace 50% 1-NPN). The calculation formula was: Ki = [IC50]/(1 + [1-NPN]/K1-NPN), where [1-NPN] is the concentration of unbound 1-NPN and K1-NPN is the dissociation concentration of protein/1-NPN complex.

Assay [2] concerns the target OachGOBP1. As to the kind of experiment: Fluorescence competitive binding assay (1-NPN displacement), OachGOBP1. Set-up: species or system Orthaga achatina. Particulars: 2 µM protein and 2 µM 1-NPN in 50 mM Tris HCl; for Ki: Ki = [IC50]/(1 + [1-NPN]/K1-NPN), read-out: GOBP1 Ki; for IC50: competitive ligand replacing 50% 1-NPN, read-out: GOBP1 IC50. The protocol:
as §1
as §2, with “All the ligands were diluted in methanol (AR, content greater than 99.5%). The concentration of pheromone component was 0.5–10 µM and the concentration of plant volatile was 1–32 µM.” left out, “Then, the concentration of competitive binding ligand was calculated according to the IC50 value (the concentration when competitive ligand can replace 50% 1-NPN).” left out

Assay [3] deals with OachGOBP1. As to the kind of experiment: Binding of fluorescent probe 1-NPN to OachGOBP1 (Scatchard). Set-up: species or system Orthaga achatina. As to conditions: 2 µM protein in 50 mM Tris HCl pH 7.4, Scatchard; read-out: dissociation constant (K1-NPN) to OachGOBP1. The protocol:
as §1

In assay [4] the target is T1, OachGOBP2. As to the kind of experiment: Binding of fluorescent probe 1-NPN to OachGOBP2 (Scatchard). As to conditions: 2 µM protein in 50 mM Tris HCl pH 7.4, Scatchard; read-out: dissociation constant (K1-NPN) to OachGOBP2. The procedure:
as §1

[5] abbreviates: 2 µM protein and 2 µM 1-NPN in 50 mM Tris HCl.
Setting [6] is: competitive ligand replacing 50% 1-NPN, 2 µM protein and 2 µM 1-NPN in 50 mM Tris HCl, read-out: GOBP2 IC50.

A word on the IC50: it is the concentration at which inhibition is half-maximal. A word on the Ki: it is the equilibrium dissociation constant of an inhibitor or competing ligand from its target.

Molecules are shown by their SMILES. Read-outs that look alike come from different tables or passages of the source.

Compound `C=CC(C)(O)CCC=C(C)C` (stereo not shown) [Linalool] returned an IC50 at OachGOBP2 [1] of 13.9 µM. Moreover, on OachGOBP1 [2], the Ki is > 30 µM and the IC50 was > 32 µM.

Turning to `CCCC/C=C\CCCCCCCCCCO` [Z11-16: OH], the Ki on OachGOBP2 [1] (setting [5]) turned out to be 3.3 µM; at OachGOBP1 [2], 1.57 µM. Moreover, the half-maximal inhibitory concentration (IC50) is 3.86 µM at OachGOBP2 [1] (setting [6]) and 1.79 µM on OachGOBP1 [2].

In the case of `CC1=CC[C@H](C(C)C)C=C1` [α-Phellandrene], the concentration for half-maximal inhibition (IC50) is 10.2 µM on OachGOBP2 [1] and > 32 µM on OachGOBP1 [2]. Further, on OachGOBP1 [2], the inhibition constant (Ki) is > 30 µM.

For `O=CCCCC=O` [Glutaraldehyde], the 50% inhibitory concentration (IC50) on OachGOBP2 [1] was > 32 µM. In addition, at OachGOBP1 [2], the Ki was > 30 µM and the IC50 is > 32 µM.

In turn, `CC(=O)/C=C/C1=C(C)CCCC1(C)C` [β-Ionone] displayed an IC50 at OachGOBP2 [1] of 17.8 µM. At OachGOBP1 [2], the Ki was > 30 µM and the IC50 is > 32 µM.

Consider `CC12CCC(CC1=O)C2(C)C` (stereo not shown) [Camphor], for which the Ki was 17.5 µM at OachGOBP2 [1] (setting [5]) and > 30 µM at OachGOBP1 [2]. The values for the IC50 on OachGOBP2 [1] (setting [6]) and on OachGOBP1 [2] were 20.7 µM and > 32 µM, respectively.

As for `CCCCCCOC(C)=O` [Hexyl acetate], the inhibition constant (Ki) on OachGOBP2 [1] (setting [5]) and on OachGOBP1 [2] was > 30 µM each time. The IC50 on OachGOBP2 [1] (setting [6]) and at OachGOBP1 [2] was > 32 µM in each case.

On to `CC/C=C\CCO` [Z3-Hexen-1-ol], for which the Ki on OachGOBP2 [1] (setting [5]) was 18.2 µM; at OachGOBP1 [2] it was > 30 µM. Also, the IC50 was 21.4 µM at OachGOBP2 [1] (setting [6]) and > 32 µM at OachGOBP1 [2].

For the compound `C=C1C2CCC(C2)C1(C)C` (stereo not shown) [Camphene], the Ki on OachGOBP2 [1] (setting [5]) and at OachGOBP1 [2] was > 30 µM throughout. Besides, the IC50 on OachGOBP2 [1] (setting [6]) and on OachGOBP1 [2] was > 32 µM in each case. In addition, on OachGOBP2 [1], the “binding to GOBP2 (in words)” value is on record as “did not bind”.

Regarding `CC12CCC(CC1)C(C)(C)O2` [Eucalyptol], the inhibition constant Ki on OachGOBP2 [1] (setting [5]) and on OachGOBP1 [2] was > 30 µM throughout. Besides, the 50% inhibitory concentration (IC50) on OachGOBP2 [1] (setting [6]) and at OachGOBP1 [2] was > 32 µM throughout.

With `C=CC(C)=CCC=C(C)C` [Ocimene], the Ki on OachGOBP2 [1] (setting [5]) and on OachGOBP1 [2] was > 30 µM throughout. For the same compound, the IC50 on OachGOBP2 [1] (setting [6]) and on OachGOBP1 [2] was > 32 µM each time.

In the case of `CC/C=C\CCOC(C)=O` [Z3-Hexenyl acetate], the figures for the inhibition constant Ki at OachGOBP2 [1] (setting [5]) and on OachGOBP1 [2] were 14.3 µM and > 30 µM, respectively. Also, the IC50 at OachGOBP2 [1] (setting [6]) is 16.8 µM; at OachGOBP1 [2], > 32 µM.

For `CCC/C=C/C=O` [E2-Hexenal], the Ki at OachGOBP2 [1] (setting [5]) and at OachGOBP1 [2] was > 30 µM each time. In addition, the half-maximal inhibitory concentration (IC50) on OachGOBP2 [1] (setting [6]) and on OachGOBP1 [2] was > 32 µM each time.

For the compound `CC(C)=CCC/C(C)=C/CC/C(C)=C/CO` [Farnesol], the Ki was 7.33 µM at OachGOBP2 [1] (setting [5]) and 9.49 µM on OachGOBP1 [2]. The IC50 at OachGOBP2 [1] (setting [6]) came to 8.68 µM; on OachGOBP1 [2], 10.9 µM.

Turning to `c1ccc(Nc2cccc3ccccc23)cc1` [1-NPN], the Kd amounted to 9.95 µM on OachGOBP1 [3] and 4.91 µM on OachGOBP2 [4].

As to `CCCC/C=C\CCCCCCCCCCOC(C)=O` [Z11-16: OAc], the Ki at OachGOBP2 [1] (setting [5]) was 2.84 µM; at OachGOBP1 [2], > 30 µM. Besides, the “binding capacity class to OachGOBP2 (sex pheromones)” value on OachGOBP2 [1] (class by Ki, sex pheromones) was “moderate (2 μM < Ki < 5 μM indicates moderate binding affinity)”. The results for the IC50 at OachGOBP2 [1] (setting [6]) and on OachGOBP1 [2] were 3.3 µM and > 32 µM, respectively.

As for `C=C/C(C)=C/C/C=C(\C)CCC=C(C)C` [α-Farnesene], the figures for the Ki on OachGOBP2 [1] (setting [5]) and on OachGOBP1 [2] were 13.4 µM and > 30 µM, respectively. In addition, the IC50 was 15.9 µM on OachGOBP2 [1] (setting [6]) and > 32 µM at OachGOBP1 [2].

As for `CC/C=C\CC=O` [Z3-Hexenal], the Ki on OachGOBP2 [1] (setting [5]) and at OachGOBP1 [2] was > 30 µM each time. For the same compound, the IC50 at OachGOBP2 [1] (setting [6]) and at OachGOBP1 [2] was > 32 µM throughout. For the same compound, at OachGOBP2 [1], the “binding to GOBP2 (in words)” value is on record as “did not bind”.

In the case of `CC(=O)/C=C/C1C(C)=CCCC1(C)C` (stereo not drawn) [α-Ionone], the IC50 on OachGOBP2 [1] was > 32 µM. Besides, at OachGOBP1 [2], the Ki is > 30 µM and the IC50 is > 32 µM.

Consider `CC(C)=CCC/C(C)=C/CO` [Geraniol], for which the IC50 on OachGOBP2 [1] was > 32 µM. In addition, at OachGOBP1 [2], the Ki was > 30 µM and the IC50 is > 32 µM.

For `CC/C=C\C/C=C\C/C=C\C/C=C\C/C=C\CCCCCCC` [Z3, Z6, Z9,Z12,Z15–23: H], the inhibition constant Ki at OachGOBP2 [1] (setting [5]) and on OachGOBP1 [2] was > 30 µM throughout. For the same compound, the half-inhibitory concentration (IC50) on OachGOBP2 [1] (setting [6]) and on OachGOBP1 [2] was > 32 µM throughout.

In the case of `C=C1CCC2CC1C2(C)C` (stereo not drawn) [β-Pinene], the IC50 on OachGOBP2 [1] and on OachGOBP1 [2] was > 32 µM each time. For the same compound, the Ki on OachGOBP1 [2] was > 30 µM.

Take `O=C/C=C/c1ccccc1` [Cinnamaldehyde]: the IC50 at OachGOBP2 [1] and on OachGOBP1 [2] was > 32 µM in each case. At OachGOBP1 [2], the Ki was > 30 µM.

As to `C=C(C)[C@H]1CC=C(C)CC1` [Limonene], the Ki at OachGOBP2 [1] (setting [5]) and at OachGOBP1 [2] was > 30 µM throughout. Moreover, the 50% inhibitory concentration (IC50) on OachGOBP2 [1] (setting [6]) and at OachGOBP1 [2] was > 32 µM throughout.

On to `CCCCCCO` [1-Hexanol], for which the Ki at OachGOBP2 [1] (setting [5]) and on OachGOBP1 [2] was > 30 µM in each case. The IC50 on OachGOBP2 [1] (setting [6]) and at OachGOBP1 [2] was > 32 µM in each case.

Turning to `C=CC(=C)CC/C=C(\C)CCC=C(C)C` [β-Farnesene], the Ki on OachGOBP2 [1] (setting [5]) and on OachGOBP1 [2] was > 30 µM throughout. Also, the IC50 at OachGOBP2 [1] (setting [6]) and at OachGOBP1 [2] was > 32 µM in each case.

Regarding `CCCC/C=C\CCCCCCCCCC=O` [Z11-16: Ald], the IC50 on OachGOBP2 [1] (setting [6]) and at OachGOBP1 [2] was > 32 µM each time. In addition, the Ki on OachGOBP1 [2] is > 30 µM.
